Patent publication US11708348B2, “Protease inhibitors for treatment of coronavirus infections” (The Scripps Research Institute, priority 2021, dated 2023)
Like-named read-outs stand apart in the source and are kept apart here.

System: SARS-CoV-2 strain USA-WA1/2020
Assay: microbe, parasite or virus in culture
Format: cell-based
[1] = Severe acute respiratory syndrome coronavirus 2, HeLa-ACE2, 24 h, HeLa-ACE2 cells, SARS-CoV-2 infection, 24 h; class symbols; read-out: EC50, uM (Hela)
[2] = Severe acute respiratory syndrome coronavirus 2, HeLa-ACE2, 24 h, HeLa-ACE2 cells, SARS-CoV-2 infection, 24 h; cells given as a bound; read-out: EC50, uM (Hela)

SMILES: CC(C)C[C@H](NC(=O)C(=O)Nc1cccnc1C(F)(F)F)C(=O)N[C@@H](C[C@@H]1CCNC1=O)C(=O)COc1c(F)c(F)cc(F)c1F [Compound 48, N1-((S)-4-methyl-1-oxo-1-(((S)-3-oxo-1-((S)-2-oxopyrrolidin-3-yl)-4-(2,3,5,6-tetrafluorophenoxy)butan-2-yl)amino)pentan-2-yl)-N2-(2-(trifluoromethyl)-pyridin-3-yl)oxalamide]
- EC50 [1]: < 0.05 µM

SMILES: CC(C)C[C@H](NC(=O)C(=O)Nc1ccccc1)C(=O)N[C@@H](C[C@@H]1CCNC1=O)C(O)COc1c(F)c(F)cc(F)c1F (stereo partly drawn) [Compound 49, N1-((2S)-1-(((2S)-3-hydroxy-1-((S)-2-oxopyrrolidin-3-yl)-4-(2,3,5,6-tetrafluorophenoxy)butan-2-yl)amino)-4-methyl-1-oxopentan-2-yl)-N2-phenyloxalamide]
- EC50 [2]: > 1 µM

SMILES: CC(C)C[C@H](NC(=O)c1cc2cc(F)ccc2[nH]1)C(=O)N[C@@H](C[C@@H]1CCNC1=O)C(=O)COP(=O)(c1ccccc1)c1ccccc1 [Compound 50, (S)-3-((S)-2-(5-fluoro-1H-indole-2-carboxamido)-4-methylpentanamido)-2-oxo-4-((S)-2-oxopyrrolidin-3-yl)butyl diphenylphosphinate]
- EC50 (Severe acute respiratory syndrome coronavirus 2, HeLa-ACE2, 24 h; read-out: EC50, uM (Hela)): 0.2 to 0.5 µM

SMILES: CC(C)C[C@H](NC(=O)C(=O)Nc1cccc2ccccc12)C(=O)N[C@@H](C[C@@H]1CCNC1=O)C(=O)COc1c(F)c(F)cc(F)c1F [Compound 51, N1-((S)-4-methyl-1-oxo-1-(((S)-3-oxo-1-((S)-2-oxopyrrolidin-3-yl)-4-(2,3,5,6-tetrafluorophenoxy)butan-2-yl)amino)pentan-2-yl)-N2-(naphthalen-1-yl)oxalamide]
- EC50 [1]: < 0.05 µM

SMILES: CC(C)C[C@H](NC(=O)C(=O)Nc1cccc(Cl)c1)C(=O)N[C@@H](C[C@@H]1CCNC1=O)C(=O)COc1c(F)c(F)cc(F)c1F [Compound 52, N1-(3-chlorophenyl)-N2-((S)-4-methyl-1-oxo-1-(((S)-3-oxo-1-((S)-2-oxopyrrolidin-3-yl)-4-(2,3,5,6-tetrafluorophenoxy)butan-2-yl)amino)pentan-2-yl)oxalamide]
- EC50 [1]: 0.05 to 0.2 µM

SMILES: CC(C)C[C@H](NC(=O)C(=O)Nc1ccc(F)c(F)c1)C(=O)N[C@@H](C[C@@H]1CCNC1=O)C(=O)COc1c(F)c(F)cc(F)c1F [Compound 53, N1-(3,4-difluorophenyl)-N2-((S)-4-methyl-1-oxo-1-(((S)-3-oxo-1-((S)-2-oxopyrrolidin-3-yl)-4-(2,3,5,6-tetrafluorophenoxy)butan-2-yl)amino)pentan-2-yl)oxalamide]
- EC50 [1]: 0.05 to 0.2 µM

SMILES: CC(C)C[C@H](CC(=O)NCc1ccccc1F)C(=O)N[C@@H](C[C@@H]1CCNC1=O)C(=O)COc1c(F)c(F)cc(F)c1F [Compound 54, (R)-N4-(2-fluorobenzyl)-2-isobutyl-N1-((S)-3-oxo-1-((S)-2-oxopyrrolidin-3-yl)-4-(2,3,5,6-tetrafluorophenoxy)butan-2-yl)succinamide]
- EC50 (Severe acute respiratory syndrome coronavirus 2, HeLa-ACE2, 24 h, read-out: EC50, uM (Hela)): > 1 µM

SMILES: CC(C)C[C@H](CC(=O)NCc1c(F)cccc1F)C(=O)N[C@@H](C[C@@H]1CCNC1=O)C(=O)COc1c(F)c(F)cc(F)c1F [Compound 55, (R)-N4-(2,6-difluorobenzyl)-2-isobutyl-N1-((S)-3-oxo-1-((S)-2-oxopyrrolidin-3-yl)-4-(2,3,5,6-tetrafluorophenoxy)butan-2-yl)succinamide]
- EC50 [2]: > 1 µM

SMILES: CC(C)C[C@H](NC(=O)C(=O)Nc1ccccc1Br)C(=O)N[C@@H](C[C@@H]1CCNC1=O)C(=O)COc1c(F)c(F)cc(F)c1F [Compound 56, N1-(2-bromophenyl)-N2-((S)-4-methyl-1-oxo-1-(((S)-3-oxo-1-((S)-2-oxopyrrolidin-3-yl)-4-(2,3,5,6-tetrafluorophenoxy)butan-2-yl)amino)pentan-2-yl)oxalamide]
- EC50 [1]: 0.05 to 0.2 µM

SMILES: CC(C)C[C@H](NC(=O)C(=O)Nc1ccccc1Cc1ccccc1)C(=O)N[C@@H](C[C@@H]1CCNC1=O)C(=O)COc1c(F)c(F)cc(F)c1F [Compound 57, N1-(2-benzylphenyl)-N2-((S)-4-methyl-1-oxo-1-(((S)-3-oxo-1-((S)-2-oxopyrrolidin-3-yl)-4-(2,3,5,6-tetrafluorophenoxy)butan-2-yl)amino)pentan-2-yl)oxalamide]
- EC50 [1]: 0.2 to 0.5 µM

SMILES: C=CC[C@H](NC(=O)C(=O)Nc1ccccc1)C(=O)N[C@@H](C[C@@H]1CCNC1=O)C(=O)COc1c(F)c(F)cc(F)c1F [Compound 58, N1-((S)-1-oxo-1-(((S)-3-oxo-1-((S)-2-oxopyrrolidin-3-yl)-4-(2,3,5,6-tetrafluorophenoxy)butan-2-yl)amino)pent-4-en-2-yl)-N2-phenyloxalamide]
- EC50 [1]: 0.2 to 0.5 µM

SMILES: CC(C)C[C@H](NC(=O)C(=O)NCc1cc(Cl)ccc1Cl)C(=O)N[C@@H](C[C@@H]1CCNC1=O)C(=O)COc1c(F)c(F)cc(F)c1F [Compound 59, Nl-(2,5-dichlorobenzyl)-N2-((S)-4-methyl-1-oxo-1-(((S)-3-oxo-1-((S)-2-oxopyrrolidin-3-yl)-4-(2,3,5,6-tetrafluorophenoxy)butan-2-yl)amino)pentan-2-yl)oxalamide]
- EC50 [1]: 0.2 to 0.5 µM

SMILES: CC(C)C[C@H](NC(=O)/C=C/c1ccccc1F)C(=O)N[C@@H](C[C@@H]1CCNC1=O)C(=O)COc1c(F)c(F)cc(F)c1F [Compound 60, (S)-2-((E)-3-(2-fluorophenyl)acrylamido)-4-methyl-N-((S)-3-oxo-1-((S)-2-oxopyrrolidin-3-yl)-4-(2,3,5,6-tetrafluorophenoxy)butan-2-yl)pentanamide]
- EC50 [1]: 0.05 to 0.2 µM

SMILES: O=C(Nc1ccccc1F)C(=O)N[C@@H](CC1CCCCC1)C(=O)N[C@@H](C[C@@H]1CCNC1=O)C(=O)COc1c(F)c(F)cc(F)c1F [Compound 61, N1-((S)-3-cyclohexyl-1-oxo-1-(((S)-3-oxo-1-((S)-2-oxopyrrolidin-3-yl)-4-(2,3,5,6-tetrafluorophenoxy)butan-2-yl)amino)propan-2-yl)-N2-(2-fluorophenyl)oxalamide]
- EC50 [1]: < 0.05 µM

SMILES: CC(C)C[C@H](NC(=O)C(=O)Nc1ccccc1OC(F)F)C(=O)N[C@@H](C[C@@H]1CCNC1=O)C(=O)COc1c(F)c(F)cc(F)c1F [Compound 62, N1-(2-(difluoromethoxy)-phenyl)-N2-((S)-4-methyl-1-oxo-1-(((S)-3-oxo-1-((S)-2-oxopyrrolidin-3-yl)-4-(2,3,5,6-tetrafluorophenoxy)butan-2-yl)amino)pentan-2-yl)oxalamide]
- EC50 [1]: < 0.05 µM

SMILES: CCc1ccccc1NC(=O)C(=O)N[C@@H](CC(C)C)C(=O)N[C@@H](C[C@@H]1CCNC1=O)C(=O)COc1c(F)c(F)cc(F)c1F [Compound 63, N1-(2-ethylphenyl)-N2-((S)-4-methyl-1-oxo-1-(((S)-3-oxo-1-((S)-2-oxopyrrolidin-3-yl)-4-(2,3,5,6-tetrafluorophenoxy)butan-2-yl)amino)pentan-2-yl)oxalamide]
- EC50 [1]: < 0.05 µM

SMILES: Cc1cccc(C)c1NC(=O)C(=O)N[C@@H](CC(C)C)C(=O)N[C@@H](C[C@@H]1CCNC1=O)C(=O)COc1c(F)c(F)cc(F)c1F [Compound 64, N1-(2,6-dimethylphenyl)-N2-((S)-4-methyl-1-oxo-1-(((S)-3-oxo-1-((S)-2-oxopyrrolidin-3-yl)-4-(2,3,5,6-tetrafluorophenoxy)butan-2-yl)amino)pentan-2-yl)oxalamide]
- EC50 [1]: < 0.05 µM
